# Measurements reported in patent publication US20260151516A1, “NEW PET TRACER FOR IMAGING OF THE FUNCTIONAL HEPATIC RESERVE” (Medizinische Universität Innsbruck, priority 2022, published 2026).
# “And” between values parts separate entries of the source, which are not always exact repeats. Equal entries are not always repeated.
# Key:
# [1] = Partition coefficient (log D), n-Octanol/PBS; assay type: physicochemical
# Protocol: The vials were vortexed for 5 min at 1,500 rpm and then centrifuged for 5 min at 20,000 rcf (Eppendorf Centrifuge 5424).
# [2] = Ligand stability in human blood serum (radio-HPLC); assay type: in vitro ADME; details: for Serum stability (% of intact ligand): 37° C.
# Protocol: (§1) Ligand stability in human blood serum (n=2) and PBS (n=1) was determined for different time points (2 min, 30 min, 60 min, 120 min). Therefore, approx. 5 MBq of radioligand was added to 1 mL of fresh human serum or PBS and incubated at 37° C. At each given time point 100 μL of the mixture were transferred to a 1.5 mL Eppendorf tube containing 100 μL of acetonitrile. The vial was vortexed and centrifuged for 2 min at 14,000 rpm before 100 μL of the supernatant were diluted with 200 μL of water and injected into analytical radio-HPLC. The PBS solution was directly injected into the radio-HPLC. Ligand stability was determined by integrating the areas of the signals in the radio chromatogram in relation to the signal of the intact ligand.
# [3] = test system: human serum; assay: Protein binding in fresh human serum (Sephadex MicroSpin G-50 columns); assay type: in vitro ADME; details: 37° C.
# Protocol: Protein binding was determined for different time points (2 min, 30 min, 60 min, 120 min) in triplicates using Sephadex MicroSpin G-50 columns (GE-Healthcare, Chicago, Illinois, USA). The columns were spun initially at 20,000 rcf for 1 min to remove the storage buffer. Then approx. 5 MBq of radioligand was added to 1 mL of fresh human serum and incubated at 37° C. At each given timepoint 25 μL of the mixture was loaded on to the column, which was then spun at 20,000 rcf for 1 min. The activity content on the column (free radioligand) and in the filtrate (protein bound fraction) was quantified in a γ-counter.
# [4] = Biodistribution studies incl. blocking experiments; assay type: in vivo; details: healthy BALB/c mice
# Protocol: For biodistribution studies 6 week old female BALB/c mice (n=3) were injected with 0.1 nmol (100 μL, approx. 1 MBq) of labelled compound via the lateral tail vein and sacrificed after 10, 30, or 60 min by cervical dislocation. The mice were dissected, blood and organs (spleen, pancreas, stomach, intestine, liver, kidney, heart, lung, muscle, and bone) were weighed, and their activity measured in a γ-counter. For blocking experiments, mice were co-injected with 100 μL of a 277 mM Galactose/PBS solution. In case of [^68Ga]Ga-TRAP-GalNAc a 277 mM N-Acetylgalactose solution was used.
# [5] = Ligand stability in PBS (radio-HPLC); assay type: physicochemical; details: 37° C., over the time course of 2 h
# Protocol: as §1
# [6] = 30 min p.i., blocking with 277 mM N-Acetylgalactose
# [7] = 30 min p.i., blocking with 277 mM galactose
smiles,measurement,setting,value
CC(=O)N[C@H]1[C@H](OCCOCCOCCn2cc(CNC(=O)CCP(=O)([O-])CN3CCN(CP(=O)([O-])CCC(=O)NCc4cn(CCOCCOCCO[C@@H]5O[C@H](CO)[C@H](O)[C@H](O)[C@H]5NC(C)=O)nn4)CCN(CP(=O)([O-])CCC(=O)NCc4cn(CCOCCOCCO[C@@H]5O[C@H](CO)[C@H](O)[C@H](O)[C@H]5NC(C)=O)nn4)CC3)nn2)O[C@H](CO)[C@H](O)[C@@H]1O.[68Ga+3] [[^68Ga]Ga-TRAP-GalNAc],logD,[1],−4.2±0.08
same,Serum stability (% of intact ligand),[2]; 120 min,high serum stability
same,Serum stability (% of intact ligand),"[2]; 120 min, listed as [^68Ga]Ga-TRAP-GalNAC",99.7 ± 0.1%
same,Protein binding (%),[3]; 30 min,24.3 ± 5.2%
same,Liver uptake compared with [^99mTc]Tc-GSA,[4],comparable
same,Biodistribution Blood,[4]; 10 min p.i.,0.64 ± 0.04 % ID/g
same,Biodistribution Femur,[4]; 10 min p.i.,0.27 ± 0.04 % ID/g
same,Biodistribution Heart,[4]; 10 min p.i.,0.69 ± 0.12 % ID/g
same,Biodistribution Intestine,[4]; 10 min p.i.,0.63 ± 0.06 % ID/g
same,Biodistribution Kidneys,[4]; 10 min p.i.,1.43 ± 0.10 % ID/g
same,Biodistribution Liver,[4]; 10 min p.i.,69.1 ± 4.18 % ID/g
same,Biodistribution Lung,[4]; 10 min p.i.,0.92 ± 0.11 % ID/g
same,Biodistribution Muscle,[4]; 10 min p.i.,0.55 ± 0.03 % ID/g
same,Biodistribution Pancreas,[4]; 10 min p.i.,0.92 ± 0.17 % ID/g
same,Biodistribution Spleen,[4]; 10 min p.i.,0.24 ± 0.05 % ID/g
same,Biodistribution Stomach,[4]; 10 min p.i.,0.86 ± 0.15 % ID/g
same,Biodistribution Blood,[4]; 30 min p.i.,0.57 ± 0.09 % ID/g
same,Biodistribution Femur,[4]; 30 min p.i.,0.47 ± 0.12 % ID/g
same,Biodistribution Heart,[4]; 30 min p.i.,0.73 ± 0.02 % ID/g
same,Biodistribution Intestine,[4]; 30 min p.i.,4.16 ± 0.35 % ID/g
same,Biodistribution Kidneys,[4]; 30 min p.i.,1.68 ± 0.30 % ID/g
same,Biodistribution Liver,[4]; 30 min p.i.,63.88 ± 2.23 % ID/g
same,Biodistribution Lung,[4]; 30 min p.i.,1.02 ± 0.06 % ID/g
same,Biodistribution Muscle,[4]; 30 min p.i.,0.74 ± 0.08 % ID/g
same,Biodistribution Pancreas,[4]; 30 min p.i.,1.50 ± 0.49 % ID/g
same,Biodistribution Spleen,[4]; 30 min p.i.,0.20 ± 0.02 % ID/g
same,Biodistribution Stomach,[4]; 30 min p.i.,1.60 ± 0.56 % ID/g
same,Biodistribution Blood,[4]; [6],0.80 ± 0.04 % ID/g
same,Biodistribution Femur,[4]; [6],0.32 ± 0.12 % ID/g
same,Biodistribution Heart,[4]; [6],0.31 ± 0.02 % ID/g
same,Biodistribution Intestine,[4]; [6],0.71 ± 0.06 % ID/g
same,Biodistribution Kidneys,[4]; [6],2.86 ± 0.21 % ID/g
same,Biodistribution Liver,[4]; [6],10.98 ± 0.44 % ID/g
same,Biodistribution Lung,[4]; [6],0.73 ± 0.02 % ID/g
same,Biodistribution Muscle,[4]; [6],0.28 ± 0.05 % ID/g
same,Biodistribution Pancreas,[4]; [6],0.39 ± 0.04 % ID/g
same,Biodistribution Spleen,[4]; [6],0.24 ± 0.01 % ID/g
same,Biodistribution Stomach,[4]; [6],0.53 ± 0.06 % ID/g
same,Biodistribution Blood,[4]; 60 min p.i.,0.23 ± 0.02 % ID/g
same,Biodistribution Femur,[4]; 60 min p.i.,0.49 ± 0.11 % ID/g
same,Biodistribution Heart,[4]; 60 min p.i.,0.82 ± 0.27 % ID/g
same,Biodistribution Intestine,[4]; 60 min p.i.,4.53 ± 0.35 % ID/g
same,Biodistribution Kidneys,[4]; 60 min p.i.,0.79 ± 0.07 % ID/g
same,Biodistribution Liver,[4]; 60 min p.i.,54.20 ± 7.95 % ID/g
same,Biodistribution Lung,[4]; 60 min p.i.,0.71 ± 0.10 % ID/g
same,Biodistribution Muscle,[4]; 60 min p.i.,0.57 ± 0.01 % ID/g
same,Biodistribution Pancreas,[4]; 60 min p.i.,0.76 ± 0.11 % ID/g
same,Biodistribution Spleen,[4]; 60 min p.i.,0.17 ± 0.05 % ID/g
same,Biodistribution Stomach,[4]; 60 min p.i.,0.54 ± 0.02 % ID/g
O=C(CCP(=O)([O-])CN1CCN(CP(=O)([O-])CCC(=O)NCc2cn(CCOCCOCCO[C@@H]3O[C@H](CO)[C@H](O)[C@H](O)[C@H]3O)nn2)CCN(CP(=O)([O-])CCC(=O)NCc2cn(CCOCCOCCO[C@@H]3O[C@H](CO)[C@H](O)[C@H](O)[C@H]3O)nn2)CC1)NCc1cn(CCOCCOCCO[C@@H]2O[C@H](CO)[C@H](O)[C@H](O)[C@H]2O)nn1.[68Ga+3] [[^68Ga]Ga-TRAP-Galactan],Stability in PBS (% intact tracer),[5],> 99%
same,logD,[1],−4.26±0.08
same,Serum stability (% of intact ligand),[2]; 2 min,97.7 ± 0.3%
same,Serum stability (% of intact ligand),[2]; 30 min,97.6 ± 0.2%
same,Serum stability (% of intact ligand),[2]; 60 min,97.6 ± 0.1%
same,Serum stability (% of intact ligand),[2]; 120 min,97.9 ± 0.1%
same,Stability in human blood serum (% intact tracer),[2]; over the time course of 2 h,> 98%
same,Protein binding (%),[3]; 2 min,8.2±3.4%
same,Protein binding (%),[3]; 30 min,6.4 ± 1.8%
same,Protein binding (%),[3]; 60 min,12.0 ± 3.1%
same,Protein binding (%),[3]; 120 min,11.6±2.2%
same,Biodistribution Blood,[4]; 10 min p.i.,3.66 ± 0.2 % ID/g
same,Biodistribution Femur,[4]; 10 min p.i.,0.85 ± 0.33 % ID/g
same,Biodistribution Heart,[4]; 10 min p.i.,1.28 ± 0.06 % ID/g
same,Biodistribution Intestine,[4]; 10 min p.i.,1.24 ± 0.05 % ID/g
same,Biodistribution Kidneys,[4]; 10 min p.i.,7.4±2.1 % ID/g and 7.39 ± 2.1 % ID/g
same,Biodistribution Liver,[4]; 10 min p.i.,24.6±1.6 % ID/g
same,Biodistribution Lung,[4]; 10 min p.i.,2.31 ± 0.17 % ID/g
same,Biodistribution Muscle,[4]; 10 min p.i.,0.91 ± 0.08 % ID/g
same,Biodistribution Pancreas,[4]; 10 min p.i.,0.87 ± 0.01 % ID/g
same,Biodistribution Spleen,[4]; 10 min p.i.,0.84 ± 0.08 % ID/g
same,Biodistribution Stomach,[4]; 10 min p.i.,1.22 ± 0.20 % ID/g
same,Biodistribution Blood,[4]; 30 min p.i.,1.6 ± 0.11 % ID/g
same,Biodistribution Femur,[4]; 30 min p.i.,0.32 ± 0.05 % ID/g
same,Biodistribution Heart,[4]; 30 min p.i.,0.65 ± 0.08 % ID/g
same,Biodistribution Intestine,[4]; 30 min p.i.,2.18 ± 0.10 % ID/g
same,Biodistribution Kidneys,[4]; 30 min p.i.,4.33 ± 0.35 % ID/g
same,Biodistribution Liver,[4]; 30 min p.i.,29.7±1.7 % ID/g
same,Biodistribution Lung,[4]; 30 min p.i.,1.09 ± 0.03 % ID/g
same,Biodistribution Muscle,[4]; 30 min p.i.,0.37 ± 0.02 % ID/g
same,Biodistribution Pancreas,[4]; 30 min p.i.,0.53 ± 0.01 % ID/g
same,Biodistribution Spleen,[4]; 30 min p.i.,0.42 ± 0.07 % ID/g
same,Biodistribution Stomach,[4]; 30 min p.i.,1.00 ± 0.27 % ID/g
same,Biodistribution Blood,[4]; [7],1.35 ± 0.52 % ID/g
same,Biodistribution Femur,[4]; [7],0.27 ± 0.09 % ID/g
same,Biodistribution Heart,[4]; [7],0.44 ± 0.09 % ID/g
same,Biodistribution Intestine,[4]; [7],1.02 ± 0.18 % ID/g
same,Biodistribution Kidneys,[4]; [7],3.70 ± 0.53 % ID/g
same,Biodistribution Liver,[4]; [7],10.6 ± 1.4 % ID/g
same,Biodistribution Lung,[4]; [7],0.86 ± 0.14 % ID/g
same,Biodistribution Muscle,[4]; [7],0.30 ± 0.04 % ID/g
same,Biodistribution Pancreas,[4]; [7],0.37 ± 0.04 % ID/g
same,Biodistribution Spleen,[4]; [7],0.29 ± 0.03 % ID/g
same,Biodistribution Stomach,[4]; [7],0.49 ± 0.07 % ID/g
same,Biodistribution Blood,[4]; 60 min p.i.,0.3±0.09 % ID/g
same,Biodistribution Femur,[4]; 60 min p.i.,0.13 ± 0.03 % ID/g
same,Biodistribution Heart,[4]; 60 min p.i.,0.16 ± 0.02 % ID/g
same,Biodistribution Intestine,[4]; 60 min p.i.,2.8±0.2 % ID/g and 2.80 ± 0.24 % ID/g
same,Biodistribution Kidneys,[4]; 60 min p.i.,1.72 ± 0.17 % ID/g
same,Biodistribution Liver,[4]; 60 min p.i.,25.0 ± 1.1 % ID/g
same,Biodistribution Lung,[4]; 60 min p.i.,0.32 ± 0.05 % ID/g
same,Biodistribution Muscle,[4]; 60 min p.i.,0.15 ± 0.03 % ID/g
same,Biodistribution Pancreas,[4]; 60 min p.i.,0.16 ± 0.02 % ID/g
same,Biodistribution Spleen,[4]; 60 min p.i.,0.17 ± 0.07 % ID/g
same,Biodistribution Stomach,[4]; 60 min p.i.,0.31 ± 0.21 % ID/g
